# Test results: patent US8889173B2, “Alpha adrenergic receptor agonists for treatment of pain and/or inflammation” (Warsaw Orthopedic, Inc., priority 2008, dated 2014)
# Experiments:
# [1] = tested on: rat Chronic Constriction Injury model (Bennett Model); assay: Hargreaves test of thermal hyperalgesia (thermal paw withdrawal latency) in rat chronic constriction injury model; type: in vivo, Wistar rat
# Source text: (§1) The inventors evaluated the efficacy of a various alpha-2-adrenergic receptor agonists and compared them against saline in the rat Chronic Constriction Injury model (i.e., Bennett Model) using Wistar rats. […] The doses given would mimic those achievable by a continuous release drug depot containing a biodegradable polymer (7 rats in each group).
# (§2) Each group received the treatment indicated above for total of 15 days and subjected to the following two tests: (1) the Hargreaves test on days 7 and 14; and (2) the von Frey test on days 8 and 15.
# (§3) Results from another rat chronic constriction injury model study similar to that discussed in Example 5, except some drug compositions having predominantly alpha 1 agonist activity and some drug compositions having predominantly alpha 2 agonist activity were given as indicated in the table below. The doses given would mimic those achievable by a continuous release drug depot containing a biodegradable polymer (7 rats in each group).
# (§4) Each group received the treatment indicated above for total of 14 days and the following two tests: (1) the Hargreaves test on days 7 and 14; and (2) the von Frey test on days 8 and 15.
# [2] = tested on: rat Chronic Constriction Injury model (Bennett Model); assay: von Frey monofilament test of mechanical allodynia (mechanical threshold) in rat chronic constriction injury model; type: in vivo, Wistar rat
# Source text: as §1, §2, §3, §4
# [3] = 5 mg/kg subcutaneous every day for 15 days, day 15, vs saline
# [4] = 100 micrograms/kg subcutaneous every day for 15 days, days 7 and 14, FIG. 36
smiles,measurement,setting,value
"Clc1cccc(Cl)c1N=C1NCCN1 [clonidine, 2,6-dichloro-N-2-imidazolidinyldenebenzenamine]",pain behavioral response for thermal hyperalgesia,"[1]; 0.02 mg/kg subcutaneous every day for 15 days, days 7 and 14",statistically significant result of decreasing pain responses
same,pain behavioral response for mechanical allodynia,"[2]; 0.02 mg/kg subcutaneous every day for 15 days, day 15, vs saline, FIG. 35",statistically significant results of decreasing pain responses
same,pain behavioral response (measured as a percentage of baseline) for mechanical allodynia,"[2]; 0.02 mg/kg/day subcutaneously, compared to unloaded polymer depots, FIG. 4",reduced the behavioral response
N=C(N)N/N=C/c1c(Cl)cccc1Cl [guanabenz],pain behavioral response for thermal hyperalgesia,"[1]; 1 mg/kg subcutaneous every day for 15 days, day 7, FIG. 37",statistically significant result of decreasing pain responses
same,pain behavioral response for mechanical allodynia,"[2]; 1 mg/kg subcutaneous every day, day 8, vs saline, FIG. 38",decreased mechanical allodynia
same,pain behavioral response for mechanical allodynia,[2]; [3],decreased mechanical allodynia
N=C(N)NC(=O)Cc1c(Cl)cccc1Cl [guanfacine],pain behavioral response for thermal hyperalgesia,"[1]; 5 mg/kg subcutaneous every day for 15 days, days 7 and 14, FIG. 36",statistically significant result of decreasing pain responses
same,pain behavioral response for mechanical allodynia,[2]; [3],statistically significant results of decreasing pain responses
Cc1cccc(C(C)c2cnc[nH]2)c1C (centres unmarked) [medetomidine],pain behavioral response for thermal hyperalgesia,[1]; [4],statistically significant result of decreasing pain responses
same,pain behavioral response for thermal hyperalgesia,"[1]; 200 micrograms/kg subcutaneous every day for 15 days, day 14, FIG. 36",statistically significant result of decreasing pain responses
same,pain behavioral response for mechanical allodynia,"[2]; 200 micrograms/kg subcutaneous every day for 15 days, day 15, vs saline, FIG. 35",statistically significant results of decreasing pain responses
Cc1cc(C(C)(C)C)c(O)c(C)c1CC1=NCCN1 [oxymetazoline],pain behavioral response for thermal hyperalgesia,"[1]; 0.1 mg/kg subcutaneous every day for 15 days, day 7, FIG. 37",statistically significant result of decreasing pain responses
same,pain behavioral response for thermal hyperalgesia,"[1]; 0.3 mg/kg subcutaneous every day for 15 days, days 7 and 14, FIG. 37",statistically significant result of decreasing pain responses
same,pain behavioral response for mechanical allodynia,"[2]; 0.1 mg/kg subcutaneous every day for 15 days, day 8 and 15, vs saline group, FIG. 38",decreasing pain responses
same,pain behavioral response for mechanical allodynia,"[2]; 0.3 mg/kg subcutaneous every day for 15 days, day 8 and 15, vs saline group, FIG. 38",decreasing pain responses
CNC[C@H](O)c1cccc(O)c1 [phenylephrine],pain behavioral response for thermal hyperalgesia,"[1]; 2 mg/kg subcutaneous every day for 15 days, day 7, FIG. 37",statistically significant result of decreasing pain responses
same,pain behavioral response for thermal hyperalgesia,"[1]; 10 mg/kg subcutaneous every day for 15 days, days 7 and 14, FIG. 37",statistically significant result of decreasing pain responses
same,pain behavioral response for mechanical allodynia,"[2]; 10 mg/kg subcutaneous every day, day 8, vs saline, FIG. 38",decreased mechanical allodynia
Clc1ccc2nsnc2c1NC1=NCCN1 [tizanidine],pain behavioral response for thermal hyperalgesia,[1]; [4],statistically significant result of decreasing pain responses
same,pain behavioral response for mechanical allodynia,"[2]; 100 micrograms/kg subcutaneous every day for 15 days, day 15, vs saline, FIG. 35",statistically significant results of decreasing pain responses
